26 molecules from patent publication US4713486A, “Novel compounds” (Beecham Group p.l.c., priority 1982, dated 1987) can be followed below.

Structures are written as SMILES.

For assay [1], the target named is T1, soybean lipoxygenase (Glycine max, UniProt P08170).
T1 sequence (P08170 1-839): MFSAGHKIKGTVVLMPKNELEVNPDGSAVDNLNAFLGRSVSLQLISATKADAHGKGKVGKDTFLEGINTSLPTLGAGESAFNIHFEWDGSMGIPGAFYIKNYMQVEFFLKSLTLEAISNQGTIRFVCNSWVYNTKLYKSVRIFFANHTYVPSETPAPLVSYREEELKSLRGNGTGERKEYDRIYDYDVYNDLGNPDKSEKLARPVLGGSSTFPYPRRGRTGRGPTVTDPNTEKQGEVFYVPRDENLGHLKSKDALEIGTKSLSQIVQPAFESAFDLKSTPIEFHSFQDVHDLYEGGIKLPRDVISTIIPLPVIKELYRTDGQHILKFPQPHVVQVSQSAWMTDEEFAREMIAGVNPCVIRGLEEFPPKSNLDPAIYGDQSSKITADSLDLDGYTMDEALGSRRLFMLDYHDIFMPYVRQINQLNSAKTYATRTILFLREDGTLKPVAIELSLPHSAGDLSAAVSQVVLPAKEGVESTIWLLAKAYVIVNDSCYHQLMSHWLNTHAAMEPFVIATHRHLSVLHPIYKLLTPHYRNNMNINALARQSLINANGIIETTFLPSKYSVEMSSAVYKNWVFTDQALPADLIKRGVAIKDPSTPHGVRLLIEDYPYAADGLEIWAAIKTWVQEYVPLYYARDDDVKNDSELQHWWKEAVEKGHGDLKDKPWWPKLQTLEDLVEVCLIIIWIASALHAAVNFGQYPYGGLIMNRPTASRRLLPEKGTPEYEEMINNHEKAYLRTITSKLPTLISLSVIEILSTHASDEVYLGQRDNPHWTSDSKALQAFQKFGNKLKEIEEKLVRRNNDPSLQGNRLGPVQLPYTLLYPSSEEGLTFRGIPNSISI
In words: Lipoxygenase Screen: inhibition of soybean lipoxygenase activity. In kind it is biochemical. The settings on record: 25° C., pH 9.0, 1000 I.U. soybean lipoxygenase, 0.017 mM arachidonic acid, 5 min preincubation; range in parentheses not explained; Example 9 as N-methylglucamine salt. How it is done: Inhibition of lipoxygenase activity was measured at 25° C. in a buffered incubation system (0.2M sodium borate, pH 9.0) comprising 1000 I.U. soybean lipoxygenase, 0.017 mM arachidonic acid, and compound (0-0.050 mM, dissolved in absolute ethanol:0.9% w/v saline, 30:70 v/v) in a total volume of 2.5 ml. Enzyme and compound were preincubated together at 25° C. for 5 minutes prior to initiation of the lipoxygenase reaction by the addition of the arachidonic acid. Lipoxygenase activity was measured as the rate of the initial increase in absorbance at 235 nm due to the formation of peroxidised forms of arachidonic acid. Inhibitory activity was measured at at least three compound concentrations and the 50% inhibitory concentration determined from the plot of % inhibition versus compound concentration.

Assay [2] concerns the target T2, cyclo-oxygenase (Bos taurus, UniProt O62664).
T2 construct: lyophilised bovine seminal vesicle microsomes; from tissue; host or cells: bovine seminal vesicle microsomes
T2 sequence (O62664 25-600): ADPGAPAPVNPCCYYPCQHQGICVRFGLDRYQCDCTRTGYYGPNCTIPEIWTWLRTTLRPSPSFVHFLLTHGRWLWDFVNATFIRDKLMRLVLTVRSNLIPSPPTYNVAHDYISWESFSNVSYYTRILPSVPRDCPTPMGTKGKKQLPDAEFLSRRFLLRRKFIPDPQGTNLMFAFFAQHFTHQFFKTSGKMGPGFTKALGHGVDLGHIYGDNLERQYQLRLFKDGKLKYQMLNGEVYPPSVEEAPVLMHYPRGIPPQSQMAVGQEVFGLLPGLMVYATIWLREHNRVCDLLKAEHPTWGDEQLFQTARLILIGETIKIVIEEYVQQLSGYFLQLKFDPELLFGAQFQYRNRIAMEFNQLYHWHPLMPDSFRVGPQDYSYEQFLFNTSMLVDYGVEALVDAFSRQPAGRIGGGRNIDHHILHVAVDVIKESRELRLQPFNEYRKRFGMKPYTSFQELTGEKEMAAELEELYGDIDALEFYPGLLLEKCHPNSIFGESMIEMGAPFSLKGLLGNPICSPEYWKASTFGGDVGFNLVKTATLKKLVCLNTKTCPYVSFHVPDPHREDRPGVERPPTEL
In words: Cyclo-oxygenase Screen: inhibition of cyclo-oxygenase in bovine seminal vesicle microsomes. The class given is biochemical. The settings on record: 50 μM compound, pH 8.0, 37° C., 5 min preincubation, 2 min reaction, 5-15 μM arachidonic acid, read-out: Cyclooxygenase Inhibition at 50 μM. How it is done:
(2) Cyclo-oxygenase Screen
The inhibition of cyclo-oxygenase was measured in a buffered incubation (0.2M Tris-HCI, pH 8.0 containing 1 mM ethylene diaminetetraacetic acid) comprising 0.96 mg lyophilised bovine seminal vesicle microsomes, 5-15 μM arachidonic acid containing 0.2 μCi [1--^14 C] arachidonic acid, 2 mM glutathione, […], 1 μM haemoglobin and compound (0-0.05 mM in 5 μl dimethylsulphoxide or absolute ethanol) in a total volume of 2.0 ml. Compounds were preincubated with the incubation constitutents for 5 min at 37° C. before the reaction was started by the addition of the arachidonic acid. The reaction was continued at 37° C. for 2 min, then stopped by placing the incubations on ice and the addition of 1.2 ml 0.2M citric acid. Unmetabolised substrate and prostaglandin products were extracted in ethyl acetate (2×4 ml), the combined extracts washed with 0.8 ml water, and separated by thin-layer chromatography (Kieselgel GF254 plates in ethyl acetate:acetone:glacial acetate acid, 90:10:1, v/v). Recovery was 65-80%. The regions on the thin-layer chromatography plate that chromatographed with authentic arachidonic acid or prostaglandins E2 and F2 α (Rf 's 0.70. 0.28 and 0.16 respectively) were scraped and the radioactivity in each determined by liquid scintillation counting with a correction for quenching being made by the external standard-channels ratio method. Inhibition of cyclo-oxygenase activity was calculated from the decrease in prostaglandin formation. Each compound concentration was tested in triplicate and the 50% inhibitory concentration, if determined, was calculated by linear regression from the inhibitory data at, at least three different compound concentrations.

For `CCCCCCCCCCCC#Cc1ccccc1CCC(=O)O` [Example 42, 3[2-(1-Tridecynyl)phenyl]propanoic acid], in assay [1], the IC50 came out at 20 µM. In assay [2], the inhibition at 50 µM came to 80%.
`CCCCCCCCCCC/C=C\c1ccc(CCC(=O)O)cc1` [Example 40, 3-{4-[(Z)-1-Tridecenyl]phenyl}propanoic acid]: the inhibition at 50 µM in assay [2] was found to be 67%.
Consider `CCCCCCCCCCC/C=C\c1ccccc1OCCC(=O)O` [Example 61, (Z) 3-[2-(1-tridecenyl)phenoxy]-propanoic acid], for which the inhibition at 50 µM in assay [2] worked out at 78.9%.
On to `CCCCCCCCCCCC#Cc1ccccc1/C=C/C(=O)O` [Example 12], for which the half-maximal inhibitory concentration (IC50) in assay [1] was determined as 85.7 µM. Besides, the inhibition at 50 µM in assay [2] was 86.5%.
With `CCCCCCCCCCC/C=C/c1ccc(CCC(=O)O)cc1` [Example 41, 3-{4-[(E)-1-Tridecenyl]phenyl}propanoic acid], the inhibition at 50 µM in assay [2] amounted to 40%.
The same measure, in the same setting: to `CCCCCCCCCCCCC/C=C\c1ccc(/C=C/C(=O)O)cc1` [Example 29] belongs 66.5%.
For the molecule `CCCCCCCCC/C=C\c1ccc(/C=C/C(=O)O)cc1` [Example 27], the half-maximal inhibitory concentration (IC50) in assay [1] is 46.6 µM. Besides, in assay [2], the inhibition at 50 µM is 70.5%.
As to `CCCCCCCCCCC/C=C\c1ccc(/C=C/C(=O)O)cc1` [Example 25], the IC50 in assay [1] turned out to be 35.9 µM. In assay [2], the inhibition at 50 µM amounted to 25.6%.
Turning to `CCCCCCCCCCC/C=C\c1ccccc1OCCCC(=O)OCC` [Example 55, (Z) Ethyl 4-[2-(1-tridecenyl)phenoxy)-butanoate], the IC50 in assay [1] is 55.4 µM.
Turning to `CCCCCCCCCCC/C=C\c1ccccc1OCCCC(=O)O` [Example 62, (Z) 4-[2-(1-tridecenyl)phenoxy]-butanoic acid], in assay [1], the IC50 came to 4.2 µM. For the same molecule, the inhibition at 50 µM in assay [2] stood at 67%.
For `CCCCCCCCCCC/C=C/c1ccc(/C=C/C(=O)O)cc1` [Example 24, 4-[(E)-1-Tridecenyl]cinnamic acid], in that order: 30 µM and 52%.
As to `CCCCCCCCCCCC#Cc1ccc(/C=C/C(=O)O)cc1` [Example 9, 4-(1-Tridecynyl)cinnamic acid], the 50% inhibitory concentration (IC50) in assay [1] was 272 µM.
Regarding `CCCCCCCCCCC/C=C\c1ccccc1CCC(=O)O` [Example 43, 3-{2-[(Z)-1-Tridecenyl]phenyl}propanoic acid], in assay [1], the 50% inhibitory concentration (IC50) is 18.4 µM. Besides, the inhibition at 50 µM in assay [2] was 62.7%.
On to `CCCCCCCCC/C=C\c1ccc(OCCCC(=O)O)cc1` [Example 92], for which, in assay [1], the half-inhibitory concentration (IC50) came out at 42.8 µM.
Take `CCCCCCCCCCCC#Cc1ccc(/C=C/C(=O)OC)cc1` [Example 4, Methyl 4-(1-tridecynyl)cinnamate]: in assay [1], the IC50 was determined as 142 µM.
`CCCCCCCCC/C=C/c1ccc(/C=C/C(=O)O)cc1` [Example 26]: the half-inhibitory concentration (IC50) in assay [1] came to 52.3 µM. Further, the inhibition at 50 µM in assay [2] came out at 52%.
On to `CCCCCCCCCCC/C=C\c1ccccc1OCC(=O)O` [Example 60, (Z) 2-[2-(1-tridecenyl)-phenoxy]ethanoic acid], for which the inhibition at 50 µM in assay [2] amounted to 92.4%.
The same measure, in the same setting: in the case of `CCCCCCCCCCC/C=C/c1ccccc1OCCCC(=O)O` [Example 85] it was 64%.
Same read-out and setting: to `CCCCCCCC/C=C\c1ccccc1OCCCC(=O)O` [Example 82] belongs 72%.
For the molecule `CCCCCCCCCC/C=C\c1ccc(OCCC(=O)O)cc1` [Example 90], the 50% inhibitory concentration (IC50) in assay [1] amounted to 75.3 µM.
Regarding `CCCCCCCCCCC/C=C\c1ccccc1/C=C/C(=O)O` [Example 30], the IC50 in assay [1] is 23.2 µM. For the same molecule, the inhibition at 50 µM in assay [2] stood at 26%.
Turning to `CCCCCCCCCCC/C=C\c1ccc(/C=C/C(=O)OC)cc1` [Example 15, Methyl 4-[(Z)-1-tridecenyl]cinnamate], the half-maximal inhibitory concentration (IC50) in assay [1] is 230 µM.
`CCCCCCCCCCC/C=C\c1ccc(OCC(=O)O)cc1` [Example 89]: in assay [1], the concentration for half-maximal inhibition (IC50) worked out at 124 µM. For the same molecule, the inhibition at 50 µM in assay [2] stood at 51%.
With `CCCCCCCCCCCC#Cc1cccc(/C=C/C(=O)O)c1` [Example 13], the inhibition at 50 µM in assay [2] amounted to 79.8%.
On the same count and under the same terms, to `CCCCCCCCCCC/C=C/c1ccccc1OCCCCC(=O)O` [Example 87] belongs 67%; to `CCCCCCCCCCC/C=C\c1cccc(/C=C/C(=O)O)c1` [Example 31], 91%.
